The values below come from patent publication US5411984A, “Water soluble analogs and prodrugs of taxol” (Virginia Tech Intellectual Properties, Inc., priority 1992, dated 1995).

Molecules are shown by their SMILES.

For data set [1] the following is noted: Deutsch et al.; cited from earlier work.
For data set [2] the following is noted: Magri and Kingston; cited from earlier work.
For data set [3] the following is noted: cited from earlier work.
For data set [4] the following is noted: cited from earlier work. This is another data set of the same source.
For data set [5] the following is noted: cited from earlier work. This is another data set of the same source.
In data set [6] the test system is P-388. As to conditions: cited from earlier work.
A short description of data set [7]: Relative solubility by the 1-octanol and water partition method (UV absorption at 228 nm), taxol = 1. As to the method: In separate experiments, taxol derivative 4 and 2'-succinyl taxol (R=NaO2 CCH2 CH2 CO2) were dissolved in a mildly basic aqueous solution.
*Solubilities were determined by using the 1octanol and water partition
method.Sample concentrations in water were determined by UV absorptions a […]

A short description of data set [8]: Stability in pH 5 buffer / mildly acidic aqueous solution (HPLC or TLC, onset of cloudiness). The data set is classed as physicochemical. The note with it: method (b): 0.5 mg in 0.1 ml EtOH and 0.9 ml pH 5 buffer, room temperature. On the procedure:
**Stabilities were determined in pH 5 buffer solution by one of the two
methods indicated below.
(a) 9.5 mg of sample was dissolved in 0.2 ml of EtOH and 0.2 ml of pH 5
buffer solution and let stand at room temperature. The progress of
decomposition was checked by HPLC or TLC and observation of the onset of
(b) 0.5 mg of sample was dissolved in 0.1 ml of EtOH and 0.9 ml of pH 5
buffer solution, the other conditions were the same as in (a) above. All
samples were stable under these conditions for at least 24 hours. No
hydrolysis was detectable by HPLC or TLC during this time period.

Data set [9] can be described thus: Solubility in pure water. Type of data set: physicochemical.
For data set [10], the system named is drug-refractory ovarian cancer. The note with it: in vivo; cited from earlier work.
Data set [11] relates to metastatic breast cancer. As to conditions: in vivo; cited from earlier work.
For data set [12] the following is noted: Cremophor EL diluent, without prolonged infusion and premedication with antiallergic drugs; cited from earlier work.
Data set [13] concerns tubulin. The note with it: cited from earlier work.

With `CC(=O)O[C@H]1C(=O)[C@@]2(C)[C@H]([C@H](OC(=O)c3ccccc3)[C@]3(O)C[C@H](OC(=O)[C@H](OC(=O)CCCC(=O)NCCCN(C)C)[C@@H](NC(=O)c4ccccc4)c4ccccc4)C(C)=C1C3(C)C)[C@]1(OC(C)=O)CO[C@@H]1C[C@@H]2O`, in data set [1], the “antitumor activity” value is “good solubility and bioactivity”.
For `CC(=O)O[C@H]1C(=O)[C@@]2(C)[C@H]([C@H](OC(=O)c3ccccc3)[C@]3(O)C[C@H](OC(=O)[C@H](O[Si](C)(C)C(C)(C)C)[C@@H](NC(=O)c4ccccc4)c4ccccc4)C(C)=C1C3(C)C)[C@]1(OC(C)=O)CO[C@@H]1C[C@@H]2O` [2'-(t-butyldimethylsilyl) taxol], in [2], the “biological activity” value was “essentially inactive”.
`CC(=O)O[C@H]1C(=O)[C@@]2(C)[C@H]([C@H](OC(=O)c3ccccc3)[C@]3(O)C[C@H](OC(=O)[C@H](OC(C)=O)[C@@H](NC(=O)c4ccccc4)c4ccccc4)C(C)=C1C3(C)C)[C@]1(OC(C)=O)CO[C@@H]1C[C@@H]2O` [2'-acetyltaxol]: in data set [3], the “hydrolysis of acyl substituents under in vivo conditions” value is “readily hydrolyzed”.
As to `CC(=O)O[C@H]1C(=O)[C@@]2(C)[C@H]([C@H](OC(=O)c3ccccc3)[C@]3(O)C[C@H](OC(=O)[C@H](OC(=O)CCN)[C@@H](NC(=O)c4ccccc4)c4ccccc4)C(C)=C1C3(C)C)[C@]1(OC(C)=O)CO[C@@H]1C[C@@H]2O` [Compound 1, 2'-(β-alanyl)-taxol], in [4], the “in vivo activity” value is reported as “active in vivo”. Further, in [5], the “aqueous solubility” value is on record as “increased water solubility”.
Take `CC(=O)O[C@H]1C(=O)[C@@]2(C)[C@H]([C@H](OC(=O)c3ccccc3)[C@]3(O)C[C@H](OC(=O)[C@H](OC(=O)CCC(=O)O)[C@@H](NC(=O)c4ccccc4)c4ccccc4)C(C)=C1C3(C)C)[C@]1(OC(C)=O)CO[C@@H]1C[C@@H]2O` [Compound 2, 2'-succinyltaxol]: the “P-388 in vivo activity compared with taxol” value in [6] is reported as “diminished”. Further, in data set [5], the “aqueous solubility” value was “increased water solubility”.
For `CC(=O)O[C@H]1C(=O)[C@@]2(C)[C@H]([C@H](OC(=O)c3ccccc3)[C@]3(O)C[C@H](OC(=O)[C@H](OC(=O)c4cc(C(=O)O)c(C(=O)O)cc4C(=O)O)[C@@H](NC(=O)c4ccccc4)c4ccccc4)C(C)=C1C3(C)C)[C@]1(OC(C)=O)CO[C@@H]1C[C@@H]2O` [Compound 9b, Taxol 2'-(trisodium 1,2,4,5-benzenetetracarboxylate)], the “times more water soluble than taxol” value in data set [7] (compared with taxol) was “more than 1500 times”. The “Stabilities at pH 5” value in data set [8] is > 24 h. Also, in data set [9], the solubility was > 227 mg/mL.
For the compound `CC(=O)O[C@H]1C(=O)[C@@]2(C)[C@H]([C@H](OC(=O)c3ccccc3)[C@]3(O)C[C@H](OC(=O)[C@H](O)[C@@H](NC(=O)c4ccccc4)c4ccccc4)C(C)=C1C3(C)C)[C@]1(OC(C)=O)CO[C@@H]1C[C@@H]2O` [Taxol], the “Relative Solubility (p')” value in [7] is given as 1. Further, the “clinical activity against drug-refractory ovarian cancer” value in [10] is “excellent clinical activity”. Besides, in data set [11], the “clinical activity in metastatic breast cancer” value is “active drug”. For the same compound, in data set [12], the allergic reactions entry was “severe allergic reactions and even death”. Also, in data set [13], the “effect on depolymerization of tubulin” value is listed as “prevents depolymerization of the tubulin” and the “effect on microtubule / tubulin polymer formation” value is “promotes formation of microtubules”. In addition, the “aqueous solubility” value in data set [5] was “low water solubility”.

Usually solubility stands for the dissolved amount per volume that the medium holds. A low value points to little dissolved substance.
